Assay results: US20250115600A1, “COVALENT MODIFIERS OF AKT1 AND USES THEREOF” (Terremoto Biosciences, Inc., priority 2022, published 2025)

Key:
Experiment in all cases: Live cell target engagement (NanoBRET) in HEK293 cells
Format in all cases: cell-based
AKT2 = AKT2 (Homo sapiens (Human), UniProt P31751); details: HEK293, 2 hours at 37° C.
AKT1 E17K = AKT1 E17K (Homo sapiens (Human), UniProt P31749, E17K); details: for IC50: HEK293, 2 hours at 37° C.
AKT1 WT = AKT1 WT (Homo sapiens (Human), UniProt P31749); details: HEK293, 2 hours at 37° C.
Chain of AKT1 WT (P31749 whole entry): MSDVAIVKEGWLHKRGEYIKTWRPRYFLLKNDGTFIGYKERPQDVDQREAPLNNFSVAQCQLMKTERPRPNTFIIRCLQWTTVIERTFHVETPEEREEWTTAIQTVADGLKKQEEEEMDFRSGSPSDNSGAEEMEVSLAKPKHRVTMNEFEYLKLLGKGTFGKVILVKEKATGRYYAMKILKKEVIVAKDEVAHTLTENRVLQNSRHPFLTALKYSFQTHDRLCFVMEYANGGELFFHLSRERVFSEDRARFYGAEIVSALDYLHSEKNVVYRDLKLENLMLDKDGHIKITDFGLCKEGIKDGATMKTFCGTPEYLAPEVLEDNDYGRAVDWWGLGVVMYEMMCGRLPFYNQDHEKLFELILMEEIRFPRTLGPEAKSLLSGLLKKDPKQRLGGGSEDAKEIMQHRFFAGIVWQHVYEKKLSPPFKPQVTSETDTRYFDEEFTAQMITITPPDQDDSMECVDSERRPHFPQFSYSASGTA

Chain of AKT1 E17K (P31749 whole entry E17K): as the sequence (P31749 whole entry) above, with E17K counted along it
Chain of AKT2 (P31751 whole entry): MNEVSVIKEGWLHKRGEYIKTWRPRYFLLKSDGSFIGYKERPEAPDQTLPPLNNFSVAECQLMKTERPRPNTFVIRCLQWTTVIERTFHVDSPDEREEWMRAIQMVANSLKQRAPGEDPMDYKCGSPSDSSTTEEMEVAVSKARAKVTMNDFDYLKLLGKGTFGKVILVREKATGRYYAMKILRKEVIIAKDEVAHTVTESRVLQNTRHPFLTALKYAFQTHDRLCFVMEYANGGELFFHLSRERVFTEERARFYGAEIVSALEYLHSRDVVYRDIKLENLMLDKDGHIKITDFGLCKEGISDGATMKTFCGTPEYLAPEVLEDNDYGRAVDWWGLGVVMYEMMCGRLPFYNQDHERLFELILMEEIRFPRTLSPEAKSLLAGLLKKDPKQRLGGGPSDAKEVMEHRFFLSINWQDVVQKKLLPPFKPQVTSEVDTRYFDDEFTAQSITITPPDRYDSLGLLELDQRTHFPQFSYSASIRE

SMILES | IC50 (AKT2) | AKT1 E17K IC50: Selectivity vs AKT1 WT (AKT1 E17K) | AKT1 E17K IC50: Selectivity vs AKT2 (AKT1 E17K) | IC50 (AKT1 E17K) | IC50 (AKT1 WT)
Nc1ncccc1-c1nc2cccnc2n1-c1ccc(CNC(=O)c2ccc(C=O)c(O)c2)cc1 [Compound 84, N-({4-[2-(2-aminopyridin-3-yl)imidazo[4,5-b]pyridin-3-yl]phenyl}methyl)-4-formyl-3-hydroxybenzamide] | > 500 nM | 0.22 | 4.8 | > 500 nM | 100 to 500 nM
Nc1ncccc1-c1nc2ccc(-c3ccccc3)nc2n1-c1ccc(N2CC(NCc3ccc(C=O)c(O)c3)C2)cc1 [Compound 38, 4-(((1-(4-(2-(2-aminopyridin-3-yl)-5-phenyl-3H-imidazo[4,5-b]pyridin-3-yl)phenyl)azetidin-3-yl)amino)methyl)-2-hydroxybenzaldehyde] | > 500 nM | 1.5 | 15 | 100 to 500 nM | 100 to 500 nM
C[C@@H](NCCc1ccc(O)c(C=O)c1)c1ccc(-n2c(-c3cccnc3N)nc3ccc(-c4ccccc4)nc32)cc1 [Compound 105, (R)-5-(2-((1-(4-(2-(2-aminopyridin-3-yl)-5-phenyl-3H-imidazo[4,5-b]pyridin-3-yl)phenyl)ethyl)amino)ethyl)-2-hydroxybenzaldehyde] | > 500 nM | 1 | >1.0 | > 500 nM | > 500 nM
Nc1ncccc1-c1nc2ccc(-c3ccccc3)nc2n1-c1ccc(CNC(=O)C2(c3ccc(C=O)c(O)c3F)CC2)cc1 [Compound 59, N-(4-(2-(2-aminopyridin-3-yl)-5-phenyl-3H-imidazo[4,5-b]pyridin-3-yl)benzyl)-1-(2-fluoro-4-formyl-3-hydroxyphenyl)cyclopropane-1-carboxamide] | > 500 nM | 5.7 | 39 | 100 to 500 nM | > 500 nM
CC(=O)Nc1c(C=O)ccc(CCNCc2ccc(-n3c(-c4cccnc4N)nc4cccnc43)cc2)c1F [Compound 89, N-(3-{2-[({4-[2-(2-aminopyridin-3-yl)imidazo[4,5-b]pyridin-3-yl]phenyl}methyl)amino]ethyl}-2-fluoro-6-formylphenyl)acetamide] | > 500 nM | 0.14 | 2.1 | > 500 nM | 100 to 500 nM
Nc1ncccc1-c1nc2ccc(N3CCOCC3)nc2n1-c1ccc(CNC(=O)c2ccc(O)c(C=O)c2)cc1 [Example 3, N-(4-(2-(2-aminopyridin-3-yl)-5-morpholino-3H-imidazo[4,5-b]pyridin-3-yl)benzyl)-3-formyl-4-hydroxybenzamide] | > 500 nM | 2.2 | 36 | 100 to 500 nM | 100 to 500 nM
Nc1ncccc1-c1nc2cccnc2n1-c1ccc(CNC(=O)c2cc(C=O)c(O)cn2)cc1 [Compound 45, N-(4-(2-(2-aminopyridin-3-yl)-3H-imidazo[4,5-b]pyridin-3-yl)benzyl)-4-formyl-5-hydroxypicolinamide] | > 500 nM | 2.7 | >7.7 | > 500 nM | > 500 nM
Nc1ncccc1-c1nc2ccc(-c3ccccc3)nc2n1-c1ccc(CNCCc2cc(O)c(C=O)cc2F)cc1 [Compound 128, 4-(2-((4-(2-(2-aminopyridin-3-yl)-5-phenyl-3H-imidazo[4,5-b]pyridin-3-yl)benzyl)amino)ethyl)-5-fluoro-2-hydroxybenzaldehyde] | 100 to 500 nM | 0.15 | 0.93 | 100 to 500 nM | < 100 nM
Nc1ncccc1-c1nc2ccc(-c3cccnc3)nc2n1-c1ccc(CNC(=O)C2(c3ccc(C=O)c(O)c3F)CC2)cc1 [Compound 67, N-(4-(2-(2-aminopyridin-3-yl)-5-(pyridin-3-yl)-3H-imidazo[4,5-b]pyridin-3-yl)benzyl)-1-(2-fluoro-4-formyl-3-hydroxyphenyl)cyclopropane-1-carboxamide] | > 500 nM | 27 | >240 | < 100 nM | > 500 nM
Nc1ncccc1-c1nc2ccc(-c3ccccc3)nc2n1-c1ccc(CNC(=O)c2ccc(C=O)c(O)c2)cc1 [Compound 138, N-(4-(2-(2-aminopyridin-3-yl)-5-phenyl-3H-imidazo[4,5-b]pyridin-3-yl)benzyl)-4-formyl-3-hydroxybenzamide] |  | 0.52 |  | < 100 nM | < 100 nM
Nc1ncccc1-c1nc2ccc(-c3ccccc3)nc2n1-c1ccc(CNC(=O)CCc2ccc(C=O)c(O)c2)cc1 [Compound 117] | 100 to 500 nM | 0.47 | 2 | 100 to 500 nM | 

Second part, the compound after the results:

IC50 (AKT2) | AKT1 E17K IC50: Selectivity vs AKT1 WT (AKT1 E17K) | AKT1 E17K IC50: Selectivity vs AKT2 (AKT1 E17K) | IC50 (AKT1 E17K) | IC50 (AKT1 WT) | SMILES
< 100 nM | 1.2 | 3 | < 100 nM | < 100 nM | Nc1ncccc1-c1nc2ccc(-c3cccc(N4CCOCC4)c3)nc2n1-c1ccc(CNC(=O)Cc2ccc(C=O)c(O)c2Cl)cc1 [Example 13, N-({4-[2-(2-aminopyridin-3-yl)-5-[3-(morpholin-4-yl)phenyl]imidazo[4,5-b]pyridin-3-yl]phenyl}methyl)-2-(2-chloro-4-formyl-3-hydroxyphenyl)acetamide]
> 500 nM | 12 | 120 | < 100 nM | 100 to 500 nM | Nc1ncccc1-c1nc2ccc(N3CC4CCC(C3)O4)nc2n1-c1ccc(CNC(=O)Cc2ccc(C=O)c(O)c2)cc1 [Example 8, N-({4-[2-(2-aminopyridin-3-yl)-5-{8-oxa-3-azabicyclo[3.2.1]octan-3-yl}imidazo[4,5-b]pyridin-3-yl]phenyl}methyl)-2-(4-formyl-3-hydroxyphenyl)acetamide]
100 to 500 nM | 0.91 | 4.1 | < 100 nM | < 100 nM | Nc1ncccc1-c1nc2ccc(-c3ccccc3)nc2n1-c1ccc(C(=O)NCc2ccc(C=O)c(O)c2)cc1 [Compound 137, 4-(2-(2-aminopyridin-3-yl)-5-phenyl-3H-imidazo[4,5-b]pyridin-3-yl)-N-(4-formyl-3-hydroxybenzyl)benzamide]
< 100 nM | 1.3 | 1.9 | < 100 nM | < 100 nM | Nc1ncccc1-c1nc2ccc(-c3ccccc3)nc2n1-c1ccc(CN2CCC(c3ccc(O)c(C=O)c3)CC2)cc1 [Compound 136, 5-(1-(4-(2-(2-aminopyridin-3-yl)-5-phenyl-3H-imidazo[4,5-b]pyridin-3-yl)benzyl)piperidin-4-yl)-2-hydroxybenzaldehyde]
< 100 nM | 1.2 | 2.1 | < 100 nM | < 100 nM | Nc1ncccc1-c1nc2ccc(-c3cccc(N4CCOCC4)c3)nc2n1-c1ccc(CNCCc2ccc(C=O)c(O)c2)cc1 [Compound 108, 4-(2-((4-(2-(2-aminopyridin-3-yl)-5-(3-morpholinophenyl)-3H-imidazo[4,5-b]pyridin-3-yl)benzyl)amino)ethyl)-2-hydroxybenzaldehyde]
> 500 nM | 3 | 66 | < 100 nM | < 100 nM | Nc1ncccc1-c1nc2ccc(-c3ccncc3)nc2n1-c1ccc(CNC(=O)Cc2ccc(C=O)c(O)c2)cc1 [Compound 61, N-({4-[2-(2-aminopyridin-3-yl)-5-(pyridin-4-yl)imidazo[4,5-b]pyridin-3-yl]phenyl}methyl)-2-(4-formyl-3-hydroxyphenyl)acetamide]
> 500 nM | 29 | >400 | < 100 nM | > 500 nM | Nc1ncccc1-c1nc2cccnc2n1-c1ccc(CNC(=O)C2(c3ccc(C=O)c(O)c3)CC2)cc1 [Compound 82, N-(4-(2-(2-aminopyridin-3-yl)-3H-imidazo[4,5-b]pyridin-3-yl)benzyl)-1-(4-formyl-3-hydroxyphenyl)cyclopropane-1-carboxamide]
> 500 nM | 6.1 | 150 | < 100 nM | 100 to 500 nM | CC1(c2ccc3nc(-c4cccnc4N)n(-c4ccc(CNC(=O)Cc5ccc(C=O)c(O)c5)cc4)c3n2)CC1 [Example 18, N-({4-[2-(2-aminopyridin-3-yl)-5-(1-methylcyclopropyl)imidazo[4,5-b]pyridin 3-yl]phenyl}methyl)-2-(4-formyl-3-hydroxyphenyl)acetamide]
> 500 nM | 3.7 | 8.4 | < 100 nM | 100 to 500 nM | Nc1ncccc1-c1nc2ccc(Cl)nc2n1-c1ccc(CNCCc2ccc(C=O)c(O)c2)cc1 [Compound 99, 4-{2-[({4-[2-(2-aminopyridin-3-yl)-5-chloroimidazo[4,5-b]pyridin-3-yl]phenyl}methyl)amino]ethyl}-2-hydroxybenzaldehyde]
> 500 nM | 4.3 | 120 | < 100 nM | < 100 nM | Nc1ncccc1-c1nc2ccc(NC3CC3)nc2n1-c1ccc(CNC(=O)Cc2ccc(C=O)c(O)c2)cc1 [Compound 25, N-({4-[2-(2-aminopyridin-3-yl)-5-(cyclopropylamino)imidazo[4,5-b]pyridin-3-yl]phenyl}methyl)-2-(4-formyl-3-hydroxyphenyl)acetamide]
100 to 500 nM | 1 | 2.2 | < 100 nM | < 100 nM | Nc1ncccc1-c1nc2ccc(-c3ccccc3)nc2n1-c1ccc(CNCCc2cc(O)c(C=O)c(F)c2)cc1 [Compound 123, 4-(2-((4-(2-(2-aminopyridin-3-yl)-5-phenyl-3H-imidazo[4,5-b]pyridin-3-yl)benzyl)amino)ethyl)-2-fluoro-6-hydroxybenzaldehyde]
